Source: ChEMBL document CHEMBL4428109, “Structure-activity relationship studies of non-carboxylic acid peroxisome proliferator-activated receptor α/δ (PPARα/δ) dual agonists” (Bioorg Med Chem, 2016)
Activity calls are given as the source filed them. No cut-off for these calls is given here.

Assays:
[1] = biological target: T1, Peroxisome proliferator-activated receptor delta (Homo sapiens) (UniProt Q03181); test: Agonist activity at N-terminal Gal4 fused human PPARdelta LBD transfected in HEK293 cells at < 10 uM after 24 hrs by luciferase reporter gene assay; type: cell-based
T1 sequence (whole entry): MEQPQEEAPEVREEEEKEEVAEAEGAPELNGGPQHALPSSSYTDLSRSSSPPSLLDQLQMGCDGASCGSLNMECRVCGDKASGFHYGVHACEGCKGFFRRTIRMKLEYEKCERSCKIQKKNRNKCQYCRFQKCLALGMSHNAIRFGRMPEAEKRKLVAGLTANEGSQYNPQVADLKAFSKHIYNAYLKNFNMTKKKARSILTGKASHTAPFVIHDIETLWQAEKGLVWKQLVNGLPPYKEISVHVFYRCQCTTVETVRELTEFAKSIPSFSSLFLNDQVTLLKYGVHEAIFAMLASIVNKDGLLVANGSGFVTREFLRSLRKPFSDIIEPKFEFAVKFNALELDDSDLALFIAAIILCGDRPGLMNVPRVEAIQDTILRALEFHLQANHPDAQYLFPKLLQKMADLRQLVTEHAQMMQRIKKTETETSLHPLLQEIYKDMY

[2] = biological target: T2, Peroxisome proliferator-activated receptor alpha (Homo sapiens) (UniProt Q07869); test: Agonist activity at N-terminal Gal4 fused human PPARalpha LBD transfected in HEK293 cells at < 10 uM after 24 hrs by luciferase reporter gene assay; type: cell-based
T2 sequence (whole entry): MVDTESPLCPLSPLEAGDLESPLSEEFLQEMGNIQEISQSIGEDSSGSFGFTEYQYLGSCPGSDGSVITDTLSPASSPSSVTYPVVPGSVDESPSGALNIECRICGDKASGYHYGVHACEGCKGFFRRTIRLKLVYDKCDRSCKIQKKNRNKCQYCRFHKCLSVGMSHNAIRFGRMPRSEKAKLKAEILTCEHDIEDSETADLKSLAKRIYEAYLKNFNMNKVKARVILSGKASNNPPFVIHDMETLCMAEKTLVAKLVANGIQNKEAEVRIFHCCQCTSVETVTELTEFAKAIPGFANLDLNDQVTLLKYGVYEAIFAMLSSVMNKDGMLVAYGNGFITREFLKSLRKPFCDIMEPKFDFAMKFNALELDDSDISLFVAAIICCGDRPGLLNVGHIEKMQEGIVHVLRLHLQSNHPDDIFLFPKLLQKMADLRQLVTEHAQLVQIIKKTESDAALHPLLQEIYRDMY

[3] = biological target: T2, Peroxisome proliferator-activated receptor alpha (Homo sapiens); test: Agonist activity at N-terminal Gal4 fused human PPARalpha LBD transfected in HEK293 cells after 24 hrs by luciferase reporter gene assay relative to GW7647; type: cell-based
[4] = biological target: T1, Peroxisome proliferator-activated receptor delta (Homo sapiens); test: Agonist activity at N-terminal Gal4 fused human PPARdelta LBD transfected in HEK293 cells after 24 hrs by luciferase reporter gene assay relative to GW501516; type: cell-based
[5] = biological target: T3, Peroxisome proliferator-activated receptor gamma (Homo sapiens) (UniProt P37231); test: Agonist activity at N-terminal Gal4 fused human PPARgamma LBD transfected in HEK293 cells at < 10 uM after 24 hrs by luciferase reporter gene assay; type: cell-based
T3 sequence (whole entry): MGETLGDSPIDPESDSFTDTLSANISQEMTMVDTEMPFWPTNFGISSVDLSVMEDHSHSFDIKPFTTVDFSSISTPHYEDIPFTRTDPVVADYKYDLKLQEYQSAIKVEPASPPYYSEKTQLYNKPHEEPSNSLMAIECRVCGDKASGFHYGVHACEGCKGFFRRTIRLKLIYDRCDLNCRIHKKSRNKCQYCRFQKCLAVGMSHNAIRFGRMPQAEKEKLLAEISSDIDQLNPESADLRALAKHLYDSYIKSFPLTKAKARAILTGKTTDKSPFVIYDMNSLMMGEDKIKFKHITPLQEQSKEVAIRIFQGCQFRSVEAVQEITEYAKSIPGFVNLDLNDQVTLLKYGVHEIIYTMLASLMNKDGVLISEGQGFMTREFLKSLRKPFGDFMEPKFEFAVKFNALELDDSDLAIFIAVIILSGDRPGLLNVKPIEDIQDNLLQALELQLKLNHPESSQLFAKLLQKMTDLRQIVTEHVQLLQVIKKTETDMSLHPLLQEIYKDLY

[6] = biological target: T4, Peroxisome proliferator-activated receptor delta (Homo sapiens, UniProt Q03181); test: Agonist activity at N-terminal Gal4 fused human PPARdelta LBD transfected in HEK293 cells after 24 hrs by luciferase reporter gene assay; type: cell-based
T4 sequence (Q03181 whole entry): T1 sequence (whole entry)

[7] = biological target: T5, Peroxisome proliferator-activated receptor alpha (Homo sapiens, UniProt Q07869); test: Agonist activity at N-terminal Gal4 fused human PPARalpha LBD transfected in HEK293 cells after 24 hrs by luciferase reporter gene assay; type: cell-based
T5 sequence (Q07869 whole entry): T2 sequence (whole entry)

[8] = biological target: T6, Retinoic acid receptor RXR-alpha (Homo sapiens) (UniProt P19793); test: Agonist activity at RXRalpha (unknown origin) at < 20 uM
T6 sequence (whole entry): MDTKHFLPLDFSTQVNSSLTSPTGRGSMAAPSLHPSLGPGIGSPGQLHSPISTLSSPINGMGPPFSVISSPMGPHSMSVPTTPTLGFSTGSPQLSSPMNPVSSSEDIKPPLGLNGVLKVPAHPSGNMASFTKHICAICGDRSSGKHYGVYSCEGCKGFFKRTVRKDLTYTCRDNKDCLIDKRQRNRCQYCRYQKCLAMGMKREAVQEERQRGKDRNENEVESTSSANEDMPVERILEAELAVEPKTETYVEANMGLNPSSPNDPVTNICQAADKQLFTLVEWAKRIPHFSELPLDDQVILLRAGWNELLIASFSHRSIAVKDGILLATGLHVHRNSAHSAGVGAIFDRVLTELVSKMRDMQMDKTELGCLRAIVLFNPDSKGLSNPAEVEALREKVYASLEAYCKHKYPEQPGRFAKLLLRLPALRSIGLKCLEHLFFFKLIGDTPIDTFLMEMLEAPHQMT

[9] = biological target: T7, Retinoic acid receptor RXR-gamma (Homo sapiens) (UniProt P48443); test: Agonist activity at RXRgamma (unknown origin) at < 20 uM
T7 sequence (whole entry): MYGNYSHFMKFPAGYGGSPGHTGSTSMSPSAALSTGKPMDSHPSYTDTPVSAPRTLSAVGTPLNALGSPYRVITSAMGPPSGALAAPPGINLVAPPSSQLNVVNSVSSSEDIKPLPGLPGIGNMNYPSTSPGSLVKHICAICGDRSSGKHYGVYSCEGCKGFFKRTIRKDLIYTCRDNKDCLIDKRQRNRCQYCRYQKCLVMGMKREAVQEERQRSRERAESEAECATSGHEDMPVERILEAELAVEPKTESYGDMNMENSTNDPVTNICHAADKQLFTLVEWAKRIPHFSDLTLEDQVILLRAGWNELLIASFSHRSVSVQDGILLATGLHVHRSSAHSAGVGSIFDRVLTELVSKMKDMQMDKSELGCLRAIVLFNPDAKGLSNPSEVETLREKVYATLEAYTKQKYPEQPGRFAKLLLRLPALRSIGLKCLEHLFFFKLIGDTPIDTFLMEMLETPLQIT

[10] = biological target: T8, Bile acid receptor (Homo sapiens) (UniProt Q96RI1); test: Agonist activity at FXR (unknown origin) at < 20 uM
T8 sequence (whole entry): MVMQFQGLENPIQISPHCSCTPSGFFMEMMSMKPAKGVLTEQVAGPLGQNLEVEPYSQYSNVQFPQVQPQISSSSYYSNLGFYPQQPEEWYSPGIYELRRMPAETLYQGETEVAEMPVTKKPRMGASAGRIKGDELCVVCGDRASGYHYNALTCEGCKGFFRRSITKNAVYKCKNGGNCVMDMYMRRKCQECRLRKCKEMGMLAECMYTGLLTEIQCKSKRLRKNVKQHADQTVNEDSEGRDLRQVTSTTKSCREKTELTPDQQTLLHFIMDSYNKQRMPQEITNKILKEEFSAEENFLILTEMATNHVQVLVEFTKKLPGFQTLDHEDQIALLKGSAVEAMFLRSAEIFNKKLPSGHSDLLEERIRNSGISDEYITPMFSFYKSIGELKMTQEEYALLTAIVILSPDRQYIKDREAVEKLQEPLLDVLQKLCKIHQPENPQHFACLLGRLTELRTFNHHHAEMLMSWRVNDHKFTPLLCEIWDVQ

[11] = biological target: T9, Retinoic acid receptor RXR-beta (Homo sapiens) (UniProt P28702); test: Agonist activity at RXRbeta (unknown origin) at < 20 uM
T9 sequence (whole entry): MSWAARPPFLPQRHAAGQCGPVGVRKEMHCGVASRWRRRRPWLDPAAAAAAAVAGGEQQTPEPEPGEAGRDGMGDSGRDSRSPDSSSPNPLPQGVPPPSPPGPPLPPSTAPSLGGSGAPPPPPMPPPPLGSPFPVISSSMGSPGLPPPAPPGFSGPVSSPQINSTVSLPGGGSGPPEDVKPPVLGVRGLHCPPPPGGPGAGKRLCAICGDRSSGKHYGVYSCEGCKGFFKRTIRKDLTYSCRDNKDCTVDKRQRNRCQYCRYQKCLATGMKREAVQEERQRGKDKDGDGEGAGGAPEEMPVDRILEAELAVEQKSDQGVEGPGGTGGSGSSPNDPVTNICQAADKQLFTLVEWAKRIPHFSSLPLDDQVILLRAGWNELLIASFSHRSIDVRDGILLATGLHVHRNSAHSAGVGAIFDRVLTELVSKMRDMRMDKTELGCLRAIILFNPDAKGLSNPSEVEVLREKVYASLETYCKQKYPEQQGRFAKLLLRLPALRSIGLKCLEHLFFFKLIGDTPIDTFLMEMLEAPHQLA

[12] = biological target: T10, Oxysterols receptor LXR-alpha (Homo sapiens) (UniProt Q13133); test: Agonist activity at LXRalpha (unknown origin) at < 20 uM
T10 sequence (whole entry): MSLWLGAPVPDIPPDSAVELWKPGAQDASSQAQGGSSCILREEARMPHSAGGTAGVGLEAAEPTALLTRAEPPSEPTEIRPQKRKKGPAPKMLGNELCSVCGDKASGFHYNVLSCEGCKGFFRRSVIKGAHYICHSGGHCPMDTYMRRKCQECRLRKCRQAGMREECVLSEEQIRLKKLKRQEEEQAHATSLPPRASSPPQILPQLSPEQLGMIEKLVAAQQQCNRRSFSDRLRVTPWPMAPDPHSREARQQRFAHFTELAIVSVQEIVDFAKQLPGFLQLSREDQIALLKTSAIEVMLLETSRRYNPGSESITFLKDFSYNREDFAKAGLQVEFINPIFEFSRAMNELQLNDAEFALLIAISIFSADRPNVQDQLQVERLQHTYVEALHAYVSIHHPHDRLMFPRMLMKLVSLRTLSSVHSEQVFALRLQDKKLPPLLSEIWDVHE

[13] = biological target: T11, Oxysterols receptor LXR-beta (Homo sapiens) (UniProt P55055); test: Agonist activity at LXRbeta (unknown origin) at < 20 uM
T11 sequence (whole entry): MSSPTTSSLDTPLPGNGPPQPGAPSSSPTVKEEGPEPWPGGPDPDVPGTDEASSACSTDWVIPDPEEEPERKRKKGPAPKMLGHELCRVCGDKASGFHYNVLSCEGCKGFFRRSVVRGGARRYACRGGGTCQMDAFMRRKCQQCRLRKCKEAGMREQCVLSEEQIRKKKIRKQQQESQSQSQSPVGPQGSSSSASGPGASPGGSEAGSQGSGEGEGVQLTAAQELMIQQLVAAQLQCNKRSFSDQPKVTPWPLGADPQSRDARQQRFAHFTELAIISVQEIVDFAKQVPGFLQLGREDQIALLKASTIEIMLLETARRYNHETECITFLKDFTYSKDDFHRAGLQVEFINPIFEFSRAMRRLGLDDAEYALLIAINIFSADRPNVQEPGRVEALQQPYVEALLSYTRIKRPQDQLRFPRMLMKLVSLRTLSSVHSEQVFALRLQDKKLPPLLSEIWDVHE

SMILES: CC(=O)N[C@H](C)c1nc(-c2ccc(Oc3ccc(OCc4ccccc4)cc3)cc2)no1
- Activity [1]: inactive
- Activity [2]: inactive
- Emax [3]: 10 to 40%

SMILES: CC(NC(=O)OC(C)(C)C)c1nc(-c2ccc(Oc3ccc(OCc4ccccc4)cc3)cc2)no1 (stereo not given)
- Activity [2]: inactive

SMILES: COC(=O)NC(C)c1nc(-c2ccc(Oc3ccc(OCc4ccccc4)cc3)cc2)no1 (stereo not given)
- Emax [3]: 10 to 40%
- Emax [4]: 5 to 15%
- Activity [5]: inactive
- EC50 [6]: 0.29 µM
- EC50 [7]: 0.1 µM

SMILES: CC(=O)N[C@@H](C)c1nc(-c2ccc(Oc3ccc(OCc4ccccc4)cc3)cc2)no1
- Emax [3]: 10 to 40%
- Emax [4]: 5 to 15%
- EC50 [6]: 0.023 µM
- EC50 [7]: 0.017 µM

SMILES: CC(=O)NC(C)c1nc(-c2ccc(Oc3ccc(O)cc3)cc2)no1 (stereo not given)
- Activity [8]: inactive
- Activity [9]: inactive
- Activity [10]: inactive
- Activity [11]: inactive
- Activity [12]: inactive
- Activity [13]: inactive

SMILES: CC(NC(=O)C(F)(F)F)c1nc(-c2ccc(Oc3ccc(O)cc3)cc2)no1 (stereo not given)
- Activity [1]: inactive
- Activity [2]: inactive
- Activity [5]: inactive

SMILES: COC(=O)NC(C)c1nc(-c2ccc(Oc3ccc(O)cc3)cc2)no1 (stereo not given)
- Activity [1]: inactive
- Activity [2]: inactive
- Activity [5]: inactive

SMILES: CC(=O)NCc1nc(-c2ccc(Oc3ccc(OCc4ccccc4)cc3)cc2)no1
- Activity [1]: inactive
- Activity [2]: inactive
- Activity [5]: inactive

SMILES: CC(=O)N(C)Cc1nc(-c2ccc(Oc3ccc(OCc4ccccc4)cc3)cc2)no1
- Activity [1]: inactive
- Activity [2]: inactive
- Activity [5]: inactive

SMILES: CCC(NC(C)=O)c1nc(-c2ccc(Oc3ccc(OCc4ccccc4)cc3)cc2)no1 (stereo not given)
- Emax [3]: 10 to 40%
- Emax [4]: 5 to 15%
- Activity [5]: inactive
- EC50 [6]: 0.11 µM
- EC50 [7]: 0.13 µM

SMILES: CC(NC(=O)C(F)(F)F)c1nc(-c2ccc(Oc3ccc(OCc4ccccc4)cc3)cc2)no1 (stereo not given)
- Emax [3]: 10 to 40%
- Emax [4]: 5 to 15%
- Activity [5]: inactive
- EC50 [6]: 0.15 µM
- EC50 [7]: 0.1 µM

SMILES: CC(=O)NC(C)(C)c1nc(-c2ccc(Oc3ccc(OCc4ccccc4)cc3)cc2)no1
- Activity [1]: inactive
- Activity [2]: inactive
- Activity [5]: inactive

SMILES: CC(N)c1nc(-c2ccc(Oc3ccc(OCc4ccccc4)cc3)cc2)no1 (stereo not given)
- Activity [2]: inactive
